Laboratory results as given in US11229657B2, “Targeting hypoxic cancer stem cells (CSCs) with doxycycline: implications for improving anti-angiogenic therapy” (LUNELLA BIOTECH, INC., priority 2017, dated 2022).
Where two headings read alike, the source gives them in different places.

Tests used:
Type in all cases: cell-based
MCF7 cells [1] = assay: Mammosphere formation assay (CSC activity/propagation); conditions: for IC50: Homo sapiens, MCF7, Valproic acid-augmented conditions, read-out: IC-50, Valproic acid-augmented CSC propagation; for IC50 / Valproic acid-augmented CSC propagation (mammosphere formation): FIG. 12C; for Valproic acid-augmented CSC propagation (mammosphere formation): glycolysis inhibitors; for basal and Valproic acid-augmented CSC propagation (mammosphere formation): FIG. 12A-B
Method: Briefly, a single cell suspension of MCF7 cells previously exposed to normoxia (21% O2) or hypoxia (1% O2) for 6 h, 72 h or 96 h was prepared using enzymatic (lx Trypsin-EDTA, Sigma Aldrich) and manual disaggregation (25-gauge needle). Cells were plated at a density of 500 cells/cm^2 in mammosphere medium (DMEM-F12/B27/20-ng/ml EGF/PenStrep) in nonadherent conditions, in culture dishes coated with (2-hydroxyethylmethacrylate) (poly-HEMA, Sigma), in the presence of treatments. Cells were grown for 5 days and maintained in a humidified incubator at 37° C. at an atmospheric pressure in 5% (v/v) carbon dioxide/air. After five days of culturing, spheres greater than 50 μm in diameter were counted using an eye piece graticule, and the percentage of cells plated which formed spheres was calculated. Mammosphere assays were performed in triplicate and repeated three times independently.

CSC propagation = assay: IC-50s of metabolic agents for inhibiting CSC propagation (Table 3); conditions: read-out: IC-50 for inhibiting CSC propagation
Method: Glycolysis is required to provide additional TCA cycle intermediates for the mitochondrial processing of Acetyl-CoA. […] Briefly, 2-deoxy-D-glucose (2-DG) or ascorbic acid were dissolved in culture medium. […] Bonuccelli et al. Oncotarget, 8: 20667-20678 (2017). […] 15, 2017, and Patent Cooperation Treaty (PCT) Patent Application PCT/US2018/022403, filed Mar. 14, 2018, the entireties of which are incorporated herein by reference; mitoketoscins, such as those disclosed in U.S. Provisional Patent Application No. 62/524,829, filed Jun. 26, 2017, the entirety of which is incorporated herein by reference; mitoflavoscins, such as those disclosed in U.S. Provisional Patent Application No. 62/576,287, filed Oct. 24, 2017, the entirety of which is incorporated herein by reference; TPP-compounds (e.g., 2-butene-1,4-bis-TPP), such as those disclosed in U.S. Provisional Patent Application No. 62/590,432, filed Nov. 24, 2017, the entirety of which is incorporated herein by reference; mDIVI1, such as those disclosed in U.S. Provisional Patent Application No. 62/608,065, filed Dec. 20, 2017, the entirety of which is incorporated herein by reference; CAPE (caffeic acid phenyl ester); antimitoscins, such as those disclosed in 62/508,702, filed May 19, 2017, the entirety of which is incorporated herein by reference; repurposcins such as those disclosed in U.S. Provisional Patent Application No. 62/593,372, filed Dec. 1, 2017, the entirety of which is incorporated herein by reference; other known mitochondrial inhibitors.

MCF7 cells [2] = assay: Mitochondrial mass by FACS with MitoTracker Deep-Red-FM; conditions: increasing concentrations 0, 1, 2.5 and 5 mM; FIG. 11A
Method: The inventors examined the effects of chronic hypoxia and oxidative stress on the propagation of breast CSCs using MCF7 cells as a model system. It should be appreciated that other model systems may be used. Briefly, MCF7 cells were obtained from ATCC and cultured in DMEM (Sigma Aldrich). For hypoxic testing, MCF7 cells were cultured in low glucose DMEM in a multi-gas N2/CO2 hypoxic chamber at 1% 02. In parallel, MCF7 cells were cultured in low glucose DMEM at 21% 02 to serve as a normoxic control. […] Next, the MCF7 cells were trypsinized and subjected to fluorescence-activated cell sorting (FACS) with MitoTracker Deep-Red-FM (Life Technologies). MitoTracker Deep Red localizes to mitochondria regardless of mitochondrial membrane potential. Cells were incubated with pre-warmed MitoTracker staining solution (diluted in PBS/CM to a final concentration of 10 nM) for 30-60 min at 37° C. All subsequent steps were performed in the dark. Cells were washed in PBS, harvested, re-suspended in 300 μL of PBS and then analyzed by flow cytometry (Fortessa, BD Bioscience). Data analysis was performed using FlowJo software (Tree star Inc.). […] FIG. 2F is a representative FACS tracing showing 96 hours of hypoxia increased mitochondrial mass. The effects of hypoxia treatment were confirmed using immunoblot analysis with TOMM20, a marker of mitochondrial mass.

MCF7 cells [3] = assay: ALDH activity by FACS (ALDEFLUOR kit); conditions: 2.5 mM; FIGS. 11C-D
Method: The present approach further includes methods of analyzing the effects of hypoxia on CSCs by examining relative changes of CSC markers. For example, aldehyde dehydrogenase (ALDH) activity is routinely used as a marker for CSCs. It should be appreciated by those in the art that other CSC markers may be used. ALDH activity was assessed by FACS analysis in MCF7 cells cultured for 72 hours in normoxia (21% 02) or hypoxia (1% 02). The ALDEFLUOR kit (StemCell Technologies) was used to isolate the population with high ALDH enzymatic activity by FACS (Fortessa, BD Bioscence). Briefly, 1×10^5 MCF7 cells were incubated in 1 ml ALDEFLUOR assay buffer containing ALDH substrate (5 μl/ml) for 40 minutes at 37° C. In each experiment, a sample of cells was stained under identical conditions with 30 μM of diethylaminobenzaldehyde (DEAB), a specific ALDH inhibitor, as a negative control. The ALDEFLUOR-positive population was established in according to the manufacturer's instructions and was evaluated in 3×10^4 cells. Data analysis was performed using FlowJo software (Tree star Inc.).

In the case of `O=CC[C@@H](O)[C@H](O)[C@H](O)CO` [2-DG, 2-deoxy-D-glucose], the IC50 (MCF7 cells [1]) is reported as 1000 µM, the “Valproic acid-augmented CSC propagation (mammosphere formation)” value (MCF7 cells [1]) is reported as “sufficient to inhibit” and the IC50 (CSC propagation; Table 3, values in mM) is reported as 10 to 20 mM.
With `O=C1C(O)=C([C@H]2CC[C@H](c3ccc(Cl)cc3)CC2)C(=O)c2ccccc21` [Atovaquone] the IC50 (CSC propagation; Table 3, values in mM) was 0.001 mM.
`CC[C@H]1OC(=O)[C@H](C)[C@@H](O[C@H]2C[C@@](C)(OC)[C@@H](O)[C@H](C)O2)[C@H](C)[C@@H](O[C@@H]2O[C@H](C)C[C@H](N(C)C)[C@H]2O)[C@](C)(O)C[C@@H](C)CN(C)[C@H](C)[C@@H](O)[C@]1(C)O` [Azithromycin] gave an IC50 (CSC propagation; Table 3, values in mM) of 0.05 to 0.1 mM.
For `COc1nc2ccc(Br)cc2cc1[C@@H](c1ccccc1)[C@@](O)(CCN(C)C)c1cccc2ccccc12` [Bedaquiline], the IC50 (CSC propagation; Table 3, values in mM) was 0.001 mM.
With `COc1ccc2cc3[n+](cc2c1OC)CCc1cc2c(cc1-3)OCO2` [Berberine] the IC50 (CSC propagation; Table 3, values in mM) was 0.001 mM.
With `CCN(CC)CCCC(C)Nc1ccnc2cc(Cl)ccc12` (stereo not shown) [Chloroquine] the IC50 (CSC propagation) was < 0.025 mM.
Compound `C[C@H]1c2cccc(O)c2C(=O)C2=C(O)[C@]3(O)C(=O)C(C(N)=O)=C(O)[C@@H](N(C)C)[C@@H]3[C@@H](O)[C@@H]21` [Doxycycline] has an IC50 (CSC propagation; Table 3, values in mM) of 0.005 mM.
In the case of `CCOC(=O)[C@@]1(CCCCCCOc2ccc(Cl)cc2)CO1` [Etomoxir], the “basal and Valproic acid-augmented CSC propagation (mammosphere formation)” value (MCF7 cells [1]) is reported as “inhibit” and the IC50 (CSC propagation; Table 3, values in mM) is reported as < 0.2 mM.
In the case of `CCc1c2c(nc3ccc(OC(=O)N4CCC(N5CCCCC5)CC4)cc13)-c1cc3c(c(=O)n1C2)COC(=O)[C@]3(O)CC` [Irinotecan], the IC50 (CSC propagation; Table 3, values given with nM) is reported as 0.0005 mM.
With `O=C(Nc1ccc([N+](=O)[O-])cc1Cl)c1cc(Cl)ccc1O` [Niclosamide] the IC50 (CSC propagation; Table 3, values given with nM) was 0.0001 mM.
`CC(=O)O[C@H]1C(=O)[C@@]2(C)[C@H]([C@H](OC(=O)c3ccccc3)[C@]3(O)C[C@H](OC(=O)[C@H](O)[C@@H](NC(=O)c4ccccc4)c4ccccc4)C(C)=C1C3(C)C)[C@]1(OC(C)=O)CO[C@@H]1C[C@@H]2O` [Paclitaxel] was tested, and the “CSC resistance to treatment (measured by mammosphere formation)” value (MCF7 cells [1]; MCF7 cells, FIGS. 5A-B) was “a fraction of CSCs is resistant”.
With `C1CCC(C(CC2CCCCN2)C2CCCCC2)CC1` (stereo not shown) [Perhexiline] the “basal and Valproic acid-augmented CSC propagation (mammosphere formation)” value (MCF7 cells [1]) was “inhibit” and the IC50 (CSC propagation; Table 3, values given with nM) was < 0.0001 mM.
`CNC(=O)c1cc(Oc2ccc(NC(=O)Nc3ccc(Cl)c(C(F)(F)F)c3)cc2)ccn1` [Sorafenib] gave an IC50 (CSC propagation; Table 3, values in mM) of 0.0005 to 0.001 mM.
Compound `CC(C)(C)C(O)/C=C/c1ccc2c(c1)OCO2` (stereo not shown) [Stiripentol] has an IC50 (CSC propagation; Table 3, values in mM) of 0.01 to 0.05 mM.
For `CCCC(CCC)C(=O)O` [Valproic acid], the mammosphere formation (MCF7 cells [1]; MCF7 cells, FIG. 11B) was “increases”, the “increase in mitochondrial mass” value (MCF7 cells [2]) was “up to 3 fold” and the “increase in ALDH activity” value (MCF7 cells [3]) was > 1.5 fold.
For `O=C1O[C@H]([C@@H](O)CO)C(O)=C1O` [Vitamin C, ascorbic acid], the IC50 (MCF7 cells [1]) was ~500 µM, the “Valproic acid-augmented CSC propagation (mammosphere formation)” value (MCF7 cells [1]) was “sufficient to inhibit” and the “potency under Valproic acid-augmented conditions compared to basal conditions” value (MCF7 cells [1]; versus previously published results under basal conditions (Bonuccelli et al. 2017)) was “two times as potent”. For the same compound, the IC50 (CSC propagation; Table 3, values in mM) was 1 mM.
